Read-outs that look alike come from different tables or passages of the source.
Legend:
SARS-CoV-2 = assay: microbe, parasite or virus in culture; type: cell-based
H1-HeLa cells [1] = conditions: human, 3 days
[2] = cited from earlier work
[3] = system: HeLa (human cervical tumor); conditions: cited from earlier work
Vero (monkey kidney) = conditions: cited from earlier work
RNA virus = assay: Daily dosing of brequinar in a subject infected with an RNA virus; type: in vivo; conditions: once per day for five consecutive days; first peak in brequinar level
Protocol: The mechanism by which administration of a DHODH inhibitor according to a daily dosing regimen inhibits viral replication is illustrated below. […] Throughout the course of the dosing regimen, levels of intracellular pyrimidines, such as uridine, and viral replication are measured.

[4] = in vivo, iv; cited from earlier work
[5] = system: Primary Human Fibroblasts; conditions: cited from earlier work
clinical = conditions: human, in vivo, po
Vero76 (monkey kidney) = conditions: cited from earlier work
[6] = system: HuH7 (human hepatocellular carcinoma); conditions: cited from earlier work
[7] = Adverse events in subjects receiving brequinar; conditions: i.v. once a week
H1-HeLa cells [8] = assay: Cytotoxicity XTT assay in H1-HeLa cells; conditions: read-out: TC50, 3 days
[9] = system: 16HBE (human bronchial epithelial); conditions: cited from earlier work
[10] = human, in vivo
[11] = weekly rapid iv injection; previously treated patients with advanced lung cancer; cited from earlier work
Vero E6 cells = conditions: remdesivir co-treated with brequinar
[12] = 1-h i.v. infusion every 3 weeks

With `CC(C)C[C@H](NC(=O)OCc1ccccc1)C(=O)N[C@@H](CC1CCNC1=O)C(O)S(=O)(=O)[O-].[Na+]` (stereo partly drawn) [GC-376] the “SI50 (Selective Index 50 = CC50/IC50)” value (SARS-CoV-2) was over 24.5.

In the case of `CCOC(=O)/C=C/[C@H](C[C@@H]1CCNC1=O)NC(=O)[C@@H](CC(=O)[C@@H](NC(=O)c1cc(C)on1)C(C)C)Cc1ccc(F)cc1` [Rupintrivir], the CC50 (H1-HeLa cells [1]) is reported as over 0.1 µM.

For `Cc1c(-c2ccc(-c3ccccc3F)cc2)nc2ccc(F)cc2c1C(=O)O` [brequinar sodium], the “recommended dose for phase II studies, good-risk patients” value [2, 12] is listed as 1,800 mg/m^2, the “recommended dose for phase II studies, poor-risk patients” value [2, 12] is listed as 1,200 mg/m^2 and the “maximum tolerable dose, good-risk patients” value ([2]; i.v. infusion every 3 weeks) is listed as 2,250 mg/m^2. The “maximum tolerable dose, poor-risk patients” value ([2]; i.v. infusion every 3 weeks) was 1,500 mg/m^2.

In the case of `Cc1c(-c2ccc(-c3ccccc3F)cc2)nc2ccc(F)cc2c1C(=O)O` [brequinar, 6-fluoro-2-(2′-fluoro-1,1′ biphenyl-4-yl)-3-methyl-4-quinoline carboxylic acid], the CC50 [3] is given as over 25 µM, the CC50 (Vero (monkey kidney)) is given as over 50 µM and the intracellular pyrimidine pool (RNA virus) is given as “dramatic decrease in the intracellular pyrimidine pool”. For the same compound, the “recommended dose for phase II evaluation, good risk patients” value [4] was 250 mg/m^2, the “recommended dose for phase II evaluation, poor risk patients” value [4] was 135 mg/m^2 and the CC50 [5] was over 50 µM. The bioavailability (clinical) was over 90%, the CC50 (Vero76 (monkey kidney)) was over 50 µM and the CC50 [6] was over 25 µM. The “Infection: No. of Patients, Max Grade 1” value [7] was 4, the “Infection: No. of Patients, Max Grade 2” value [7] was 3 and the “Infection: No. of Patients, Max Grade 3” value [7] was 0. For the same compound, the “Infection: No. of Patients, Max Grade 4” value [7] was 0, the CC50 (H1-HeLa cells [8]) was 0.3 µM and the CC50 [9] was over 50 µM. The “cumulative effect of repeated doses” value [10] was “No cumulative effective of repeated doses”.

In the case of `NC(=O)c1[nH]nc([C@@H]2O[C@H](CO)[C@@H](O)[C@H]2O)c1O` [pyrazofurin, 5-[(2S,3R,4S,5R)-3,4-dihydroxy-5-(hydroxymethyl)oxolan-2-yl]-4-hydroxy-1H-pyrazole-3-carboxamide], the therapeutic value [11] is given as “little therapeutic value as a single agent”.

With `CCC(CC)COC(=O)[C@H](C)N[P@](=O)(OC[C@H]1O[C@@](C#N)(c2ccc3c(N)ncnn23)[C@H](O)[C@@H]1O)Oc1ccccc1` [remdesivir] the “cytotoxicity by the co-treatment” value (Vero E6 cells) was “No enhanced cytotoxicity”, the “fold increase in activity of remdesivir” value (SARS-CoV-2) was over 6.8 fold and the “E(Max)” value (SARS-CoV-2; SARS-CoV-2, Vero E6, maximum CPE-protection effect) was 100.

With `NC(=O)c1ncn([C@@H]2O[C@H](CO)[C@@H](O)[C@H]2O)n1` [ribavirin] the EC50 (SARS-CoV-2; Severe acute respiratory syndrome coronavirus 2, Vero C1008, SARS-CoV-2, Vero E6, MOI 0.05, read-out: EC50 (50% of the maximum CPE-protection effect of the compound)) was over 50 µM.

Reference: patent US20210308117A1, “METHODS OF TREATING VIRAL INFECTIONS USING INHIBITORS OF NUCLEOTIDE SYNTHESIS PATHWAYS” (priority 2020, published 2021)
